Measurements from US20140275007A1, “OXAMAZIN ANTIBIOTICS” (priority 2013, published 2014).
Converted amounts (≈) assume the structure as drawn.

Tests used:
Type in all cases: cell-based, Escherichia coli
[1] = tested on: E. coli strain ECM6711 (pUCP24::VIM-1); assay: MIC, broth microdilution, isogenic E. coli panel, VIM-1 strain; details: for Ratio of MIC vs vector alone: strain ECM6711, pUCP24::VIM-1 vs ECM6704
Experimental: (§1) Potency and spectrum of compound 1 was determined using the panel of isogenic engineered strains, each containing a plasmid carrying a cloned gene expressing a β-lactamase enzyme. The strain that contained the empty vector was included to evaluate the impact of individual β-lactamases on microbiological activity of compound 1 vs comparator antibiotics. The host strain was wild-type strain of Escherichia coli, ECM5497. The vector plasmid was pUCP24. […] MIC was assessed using broth microdilution method as recommended by the NCCLS (National Committee for Clinical Laboratory Standards. Methods for Dilution Antimicrobial Susceptibility Tests for Bacteria that Grow Aerobically—4th Edition. Approved Standard NCCLS Document M7-A4, Vol. 17, No. 2, NCCLS, Wayne, Pa., January 1997). In this assay multiple dilutions of drugs are being tested for the ability to inhibit growth of the test bacterial strains. The MIC assay is performed in microtiter plates. Antibiotics are diluted two-fold in the x axis, each column containing a single concentration of antibiotic. The assay is performed in MHB with a final bacterial inoculum of 5×10^5 CFU/mL (from an early-log phase culture). Microtiter plates are incubated during 20 h at 35° C. and are read using a microtiterplate reader (Molecular Devices) at 650 nm as well as visual observation using a microtiter plate reading mirror.

[2] = tested on: E. coli strain ECM6715 (pUCP24::AmpC); assay: MIC, broth microdilution, isogenic E. coli panel, AmpC strain; details: for Ratio of MIC vs vector alone: strain ECM6715, pUCP24::AmpC vs ECM6704
Experimental: as §1

[3] = tested on: E. coli strain ECM6696 (pUCP24::NMC-A); assay: MIC, broth microdilution, isogenic E. coli panel, NMC-A strain; details: for Ratio of MIC vs vector alone: strain ECM6696, pUCP24::NMC-A vs ECM6704
Experimental: as §1

[4] = tested on: E. coli strain ECM6716 (pUCP24::OXA-48); assay: MIC, broth microdilution, isogenic E. coli panel, OXA-48 strain; details: for Ratio of MIC vs vector alone: strain ECM6716, pUCP24::OXA-48 vs ECM6704
Experimental: as §1

[5] = tested on: E. coli strain ECM6706 (pUCP24::SME-2); assay: MIC, broth microdilution, isogenic E. coli panel, SME-2 strain; details: for Ratio of MIC vs vector alone: strain ECM6706, pUCP24::SME-2 vs ECM6704
Experimental: as §1

[6] = tested on: E. coli strain ECM6701 (pUCP24::KPC-2); assay: microbe, parasite or virus in culture; details: for Ratio of MIC vs vector alone: strain ECM6701, pUCP24::KPC-2 vs ECM6704
Experimental: as §1

[7] = tested on: E. coli strain ECM6718 (pUCP24::SHV-5); assay: microbe, parasite or virus in culture; details: for Ratio of MIC vs vector alone: strain ECM6718, pUCP24::SHV-5 vs ECM6704
Experimental: as §1

[8] = tested on: E. coli strain ECM6704 (pUCP24, vector); assay: MIC, broth microdilution, isogenic E. coli panel, empty vector strain; details: for Ratio of MIC vs vector alone: strain ECM6704, pUCP24, vector (reference strain itself)
Experimental: as §1

[9] = tested on: E. coli strain ECM6703 (pUCP24::NDM-1); assay: MIC, broth microdilution, isogenic E. coli panel, NDM-1 strain; details: for Ratio of MIC vs vector alone: strain ECM6703, pUCP24::NDM-1 vs ECM6704
Experimental: as §1

[10] = tested on: E. coli strain ECM6713 (pUCP24::TEM-10); assay: MIC, broth microdilution, isogenic E. coli panel, TEM-10 strain; details: for Ratio of MIC vs vector alone: strain ECM6713, pUCP24::TEM-10 vs ECM6704
Experimental: as §1

[11] = tested on: E. coli strain ECM6694 (pUCP24::CTX-M-15); assay: MIC, broth microdilution, isogenic E. coli panel, CTX-M-15 strain; details: for Ratio of MIC vs vector alone: strain ECM6694, pUCP24::CTX-M-15 vs ECM6704
Experimental: as §1

[12] = tested on: E. coli strains expressing individual β-lactamases; assay: Impact of β-lactamases on microbiological activity, whole panel of isogenic engineered strains
Experimental: as §1
Table 2 contains MICs of compound 1 and comparator antibiotics for each test strain and Table 3 contains MIC ratios vs vector only control (strain ECM6704). β-Lactamases present in the test panel belonged to all four currently described classes of enzymes, A, B, C and D. These β-lactamases also represent the major groups of the most relevant enzymes.

[13] = strain ECM6711, pUCP24::VIM-1, class B
[14] = strain ECM6715, pUCP24::AmpC, class C
[15] = strain ECM6696, pUCP24::NMC-A, class A, carbapenemase
[16] = strain ECM6706, pUCP24::SME-2, class A, carbapenemase
[17] = strain ECM6701, pUCP24::KPC-2, class A, carbapenemase
[18] = strain ECM6718, pUCP24::SHV-5, class A, ESBL
[19] = strain ECM6703, pUCP24::NDM-1, class B
[20] = strain ECM6713, pUCP24::TEM-10, class A, ESBL
[21] = strain ECM6694, pUCP24::CTX-M-15, class A, ESBL

| SMILES | MIC [1, 13] | Ratio of MIC vs vector alone [1] | Ratio of MIC vs vector alone [2] | MIC [2, 14] | Ratio of MIC vs vector alone [3] | MIC [3, 15] | Ratio of MIC vs vector alone [4] | MIC [5, 16] | Ratio of MIC vs vector alone [5] | MIC [6, 17] | Ratio of MIC vs vector alone [6] | MIC ([1]; Escherichia coli) | MIC ([2]; Escherichia coli) | MIC ([3]; Escherichia coli) | MIC ([4]; Escherichia coli) | MIC ([5]; Escherichia coli) | MIC ([8]; Escherichia coli, 20 h) | MIC ([9]; Escherichia coli) | MIC ([10]; Escherichia coli) | MIC ([11]; Escherichia coli) | other results |
| --- | --- | --- | --- | --- | --- | --- | --- | --- | --- | --- | --- | --- | --- | --- | --- | --- | --- | --- | --- | --- | --- |
| CC1(C)[C@H](NC(=O)/C(=N\OCC(=O)O)c2csc(N)n2)C(=O)N1OS(=O)(=O)O [TIGEMONAM, tigemonam] | 0.25 µg/mL (≈ 0.572 µM) | 1 | 16 | 4 µg/mL (≈ 9.14 µM) | 2 µg/mL | 0.5 µg/mL (≈ 1.14 µM) | 2 | 0.5 µg/mL (≈ 1.14 µM) | 2 | 0.5 µg/mL (≈ 1.14 µM) | 2 |  |  |  |  |  |  |  |  |  | MIC ([4]; strain ECM6716, pUCP24::OXA-48, class D): 0.25 µg/mL (≈ 0.572 µM); MIC [7, 18]: 32 µg/mL (≈ 73.2 µM); Ratio of MIC vs vector alone [7]: 128; Ratio of MIC vs vector alone [8]: 1; MIC ([8]; strain ECM6704, plasmid pUCP24, vector, MHB, 20 h at 35° C.): 0.25 µg/mL (≈ 0.572 µM); MIC [9, 19]: 0.25 µg/mL (≈ 0.572 µM); Ratio of MIC vs vector alone [9]: 2; MIC [10, 20]: >64 µg/mL; Ratio of MIC vs vector alone [10]: 256; MIC [11, 21]: 2 µg/mL (≈ 4.57 µM); Ratio of MIC vs vector alone [11]: 8 |
| CC(C)(O/N=C(\C(=O)N[C@@H]1C(=O)N2C(C(=O)[O-])=C(C[n+]3ccccc3)CS[C@H]12)c1csc(N)n1)C(=O)O [CEFTAZIDIME, ceftazidime] | >64 µg/mL |  |  | 16 µg/mL (≈ 29.3 µM) |  | 0.5 µg/mL (≈ 0.915 µM) |  | 1 µg/mL (≈ 1.83 µM) |  | 4 µg/mL (≈ 7.32 µM) |  |  |  |  |  |  |  |  |  |  | MIC [7, 18]: 8 µg/mL (≈ 14.6 µM); MIC [9, 19]: >64 µg/mL; MIC [10, 20]: 65 µg/mL (≈ 119 µM); MIC [11, 21]: 16 µg/mL (≈ 29.3 µM) |
| C[C@H]1[C@H](NC(=O)/C(=N\OC(C)(C)C(=O)O)c2csc(N)n2)C(=O)N1S(=O)(=O)O [AZTREONAM, aztreonam] |  |  |  |  |  |  |  |  |  |  |  | ≤ 0.06 µg/mL | 8 µg/mL (≈ 18.4 µM) | 64 µg/mL (≈ 147 µM) | 0.125 µg/mL (≈ 0.287 µM) | > 64 µg/mL | 0.125 µg/mL (≈ 0.287 µM) | ≤ 0.06 µg/mL | > 64 µg/mL | 32 µg/mL (≈ 73.5 µM) |  |
| CC1(C)[C@H](NC(=O)/C(=N\OCC(=O)O)c2csc(N)n2)C(=O)N1OCC(=O)O [Compound 1, (S,Z)-2-(1-(2-aminothiazol-4-yl)-2-(1-(carboxymethoxy)-2,2-dimethyl-4-oxoazetidin-3-ylamino)-2-oxoethylideneaminooxy)acetic acid] |  | 0.5 | 1 |  | 0.5 µg/mL |  | 1 |  | 0.5 |  | 0.5 | 1 µg/mL (≈ 2.41 µM) | 2 µg/mL (≈ 4.81 µM) | 1 µg/mL (≈ 2.41 µM) | 2 µg/mL (≈ 4.81 µM) | 1 µg/mL (≈ 2.41 µM) | 2 µg/mL (≈ 4.81 µM) | 1 µg/mL (≈ 2.41 µM) | 16 µg/mL (≈ 38.5 µM) | 1 µg/mL (≈ 2.41 µM) | MIC ([6]; Escherichia coli): 1 µg/mL (≈ 2.41 µM); MIC ([7]; Escherichia coli): 4 µg/mL (≈ 9.63 µM); Ratio of MIC vs vector alone [7]: 2; Ratio of MIC vs vector alone [8]: 1; Ratio of MIC vs vector alone [9]: 0.5; Effect of TEM-10 on activity ([10]; only enzyme in the panel with an effect, much less than on other monobactams or ceftazidime): some effect; Ratio of MIC vs vector alone [10]: 8; Effect of class B or class D enzymes on potency ([12]; class B or class D β-lactamases): not affected; Effect of the majority of class A and class C enzymes on potency ([12]; majority of class A and class C β-lactamases): not affected; Effect of β-lactamases on potency, compared with the other β-lactams tested ([12]; whole panel, vs aztreonam, tigemonam, carumonam, ceftazidime): least affected; Ratio of MIC vs vector alone [11]: 0.5 |
| NC(=O)OC[C@@H]1[C@H](NC(=O)/C(=N\OCC(=O)O)c2csc(N)n2)C(=O)N1S(=O)(=O)O [CARUMONAM, carumonam] |  |  |  |  | 4 µg/mL |  |  |  |  |  |  | ≤ 0.06 µg/mL | 4 µg/mL (≈ 8.58 µM) | 0.25 µg/mL (≈ 0.536 µM) | ≤ 0.06 µg/mL | 0.125 µg/mL (≈ 0.268 µM) | ≤ 0.06 µg/mL | ≤ 0.06 µg/mL | 4 µg/mL (≈ 8.58 µM) | 0.125 µg/mL (≈ 0.268 µM) | MIC ([6]; Escherichia coli): 0.25 µg/mL (≈ 0.536 µM); MIC ([7]; Escherichia coli): 2 µg/mL (≈ 4.29 µM) |
